Like-named read-outs stand apart in the source and are kept apart here. One block for each compound: values may come before it.
Biological target: T1, SIRT1 (Homo sapiens, UniProt Q96EB6)
T1 sequence (Q96EB6 1-747): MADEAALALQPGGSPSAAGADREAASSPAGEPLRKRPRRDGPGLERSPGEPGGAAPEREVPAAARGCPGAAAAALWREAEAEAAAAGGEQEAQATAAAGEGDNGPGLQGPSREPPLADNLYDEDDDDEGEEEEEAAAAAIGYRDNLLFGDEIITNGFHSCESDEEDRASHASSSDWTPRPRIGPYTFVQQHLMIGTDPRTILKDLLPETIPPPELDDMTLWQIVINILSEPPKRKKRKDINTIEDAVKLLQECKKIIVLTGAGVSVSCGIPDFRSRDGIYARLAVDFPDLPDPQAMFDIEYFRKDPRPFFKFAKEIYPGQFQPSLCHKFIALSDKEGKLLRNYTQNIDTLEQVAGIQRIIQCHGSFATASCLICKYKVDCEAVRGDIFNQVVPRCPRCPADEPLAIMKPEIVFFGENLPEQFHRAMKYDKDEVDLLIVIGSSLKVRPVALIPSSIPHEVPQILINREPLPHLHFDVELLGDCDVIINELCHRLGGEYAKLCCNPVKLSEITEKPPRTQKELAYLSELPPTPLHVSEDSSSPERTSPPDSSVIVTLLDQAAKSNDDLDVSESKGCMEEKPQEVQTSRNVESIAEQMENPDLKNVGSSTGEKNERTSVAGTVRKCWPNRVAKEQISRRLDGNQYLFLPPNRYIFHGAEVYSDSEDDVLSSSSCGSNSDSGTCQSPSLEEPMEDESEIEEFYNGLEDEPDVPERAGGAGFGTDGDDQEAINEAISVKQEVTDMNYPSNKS
Experiment: Trp mass spectrometry assay of SIRT1 activation
Format: biochemical
Conditions: for TRP Activity (EC1.5): EC1.5 = concentration that results in 150% activation of SIRT1
Method in brief: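 Activation read-out: mass-spec measurement of O-acetyl-ADP-ribose or deacetylated Trp peptide versus compound-free controls, giving EC1.5 and Percent Maximum Activation. Reactions ran 25 min at 25 °C, pH 7.5, with 120 μM βNAD+, 0.5 μM acetylated p53-derived peptide and 10 nM His-tagged SIRT1.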

[1] = concentration giving 150% activation of SIRT1, Trp peptide substrate
[2] = Trp mass spectrometry assay, concentration of test compound giving 150% activation of SIRT1
[3] = Trp mass spectrometry assay, EC1.5 = concentration of test compound that results in 150% activation of SIRT1
[4] = Trp peptide assay, maximum activity relative to control (100%), read-out: TRP MAX RESP (percent maximum fold activation)
[5] = Trp mass spectrometry assay, percent maximum fold activation of SIRT1, read-out: Tryp % Fold Act

Tryp AVG EC1.5 (μM) [1]: B (B (EC1.5 1-25 μM))
Emax (percent maximum fold activation of SIRT1, Trp peptide substrate, read-out: Tryp % Fold Act): > 150%
Compound: CC(C)(C)OC(=O)NCc1cccc(-c2ccc3c(n2)N(C(=O)Nc2ccncc2)[C@H]2CCN3C2)c1 [Example 794]

Tryp AVG EC1.5 (μM) [2]: A (A (EC1.5<1 μM))
Compound: COc1cc(-c2cccc(Cl)c2)nc2c1N1CC[C@@H](C1)N2C(=O)Nc1cnccn1 [Example 396]

Tryp AVG EC1.5 (μM) [3]: A (A (EC1.5<1 μM))
Compound: O=C(Nc1cncc(F)c1)N1c2nc(-c3ccnc(N4CC[C@H](F)C4)c3)ccc2N2CC[C@H]1C2 [Example 475]

TRP Activity (EC1.5) (Trp peptide assay): A (A (EC1.5<1 μM))
Emax [4]: > 150%
Compound: O=C(Nc1ncccn1)N1c2nc(N3CCC[C@H](C(F)(F)F)C3)ccc2N2CCC[C@H]1C2 [(9S)-N-(pyrimidin-2-yl)-5-[(3S)-3-(trifluoromethyl)piperidin-1-yl]-1,6,8-triazatricyclo[7.3.1.0 {2,7}]trideca-2(7),3,5-triene-8-carboxamide]

Tryp AVG EC1.5 (μM) [1]: A (A (EC1.5<1 μM))
Compound: CS(=O)(=O)c1cccc(-c2ccc3c(n2)N(C(=O)Nc2cccc(-c4cnco4)c2)[C@H]2CCN3C2)c1 [Example 710]

Tryp AVG EC1.5 (μM) [3]: B (B (EC1.5 1-25 μM))
Compound: O=C(Nc1cncc(F)c1)N1c2nc(-c3ccnc(N4CC[C@@H](F)C4)c3)ccc2N2CC[C@H]1C2 [Example 464]

Tryp AVG EC1.5 (μM) [3]: A (A (EC1.5<1 μM))
Compound: O=C(Nc1cc(-c2cnco2)ccn1)N1c2nc(-c3cccc(C(F)(F)F)c3)ccc2N2CCC[C@H]1C2 [Example 591]

Tryp AVG EC1.5 (μM) [2]: A (A (EC1.5<1 μM))
Compound: COc1cc(NC(=O)N2c3nc(-c4cccc(Cl)c4)ccc3N3CCC[C@H]2C3)ncn1 [Example 408]

TRP Activity (EC1.5) (Trp peptide assay): B (B (EC1.5 1-25 μM))
Emax [4]: > 150%
Compound: C[C@@H]1COCCN1c1ccc2c(n1)N(C(=O)Nc1cccnc1)[C@H]1CCN2C1 [(9S)-5-[(3R)-3-methylmorpholin-4-yl]-N-(pyridin-3-yl)-1,6,8-triazatricyclo[7.2.1.0 {2,7}]dodeca-2(7),3,5-triene-8-carboxamide]

Tryp AVG EC1.5 (μM) [3]: C (C (EC1.5>25 μM))
Compound: O=C(Nc1ccncn1)N1c2nc(N3CCCNCC3)ccc2N2CCC[C@H]1C2 [Example 420]

Tryp AVG EC1.5 (μM) [1]: A (A (EC1.5<1 μM))
Compound: CS(=O)(=O)c1cccc(-c2ccc3c(n2)N(C(=O)Nc2cc(-c4cnco4)ccn2)[C@H]2CCN3C2)c1 [Example 723]

Tryp AVG EC1.5 (μM) [1]: A (A (EC1.5<1 μM))
Compound: O=C(Nc1ccncc1)N1c2nc(-c3cccc(C(F)(F)F)c3)ccc2N2CCC[C@H]1C2 [Example 821]

TRP Activity (EC1.5) (Trp peptide assay): B (B (EC1.5 1-25 μM))
Emax [4]: > 150%
Compound: CCc1ccc(-c2ccc3c(n2)N(C(=O)Nc2cnccn2)[C@H]2CCN3C2)cn1 [(9S)-5-(6-ethylpyridin-3-yl)-N-(pyrazin-2-yl)-1,6,8-triazatricyclo[7.2.1.0 {2,7}]dodeca-2(7),3,5-triene-8-carboxamide]

Tryp AVG EC1.5 (μM) [3]: A (A (EC1.5<1 μM))
Compound: CC(C)(C)OC(=O)NCc1cn(-c2cccc(NC(=O)N3c4nc(-c5cccc(C(F)(F)F)c5)ccc4N4CC[C@H]3C4)c2)nn1 [Example 605]

TRP Activity (EC1.5) (Trp peptide assay): A (A (EC1.5<1 μM))
Emax [4]: > 150%
Compound: Cc1cc(-c2ccc3c(n2)N(C(=O)Nc2ccc4nn(C)cc4c2)[C@H]2CCCN3C2)ccn1 [(9S)-N-(2-methyl-2H-indazol-5-yl)-5-(2-methylpyridin-4-yl)-1,6,8-triazatricyclo[7.3.1.0 {2,7}]trideca-2,4,6-triene-8-carboxamide]

Tryp AVG EC1.5 (μM) [1]: B (B (EC1.5 1-25 μM))
Compound: O=C(NCc1ccc(NC(=O)N2c3nc(-c4cccc(C(F)(F)F)c4)ccc3N3CC[C@H]2C3)cc1)OC[C@@H]1[C@@H]2CCC#CCC[C@@H]21 [Example 796]

TRP Activity (EC1.5) (Trp peptide assay): A (A (EC1.5<1 μM))
Emax [4]: > 150%
Compound: O=C(NC(CO)C(F)(F)F)c1ccc2c(n1)N(C(=O)Nc1ccccn1)[C@H]1CCN2C1 (stereo partly drawn) [(9S)-8-N-(pyridin-2-yl)-5-N-(1,1,1-trifluoro-3-hydroxypropan-2-yl)-1,6,8-triazatricyclo[7.2.1.0^{2,7}]dodeca-2(7),3,5-triene-5,8-dicarboxamide]

Tryp AVG EC1.5 (μM) [2]: B (B (EC1.5 1-25 μM))
Compound: O=C(Nc1ccccn1)N1c2nc(-c3cccc(C(F)(F)F)c3F)ccc2N2CC[C@H]1C2 [Example 334]

TRP Activity (EC1.5) (Trp peptide assay): B (B (EC1.5 1-25 μM))
Emax [4]: > 150%
Compound: O=C(Nc1cnccn1)N1c2nc(N3CCCCC3)ccc2N2CC[C@H]1C2 [(9S)-5-(piperidin-1-yl)-N-(pyrazin-2-yl)-1,6,8-triazatricyclo[7.2.1.0 {2,7}]dodeca-2,4,6-triene-8-carboxamide]

Tryp AVG EC1.5 (μM) [1]: A (A (EC1.5<1 μM))
Compound: CC(C)(C)OC(=O)NCC#Cc1cc(NC(=O)N2c3nc(-c4cccc(C(F)(F)F)c4)ccc3N3CCC[C@H]2C3)cc(-c2cnco2)c1 [Example 760]

Tryp AVG EC1.5 (μM) [3]: B (B (EC1.5 1-25 μM))
Emax [5]: > 150%
Compound: Cc1c(-c2ccc3c(n2)C(C(=O)Nc2ccccn2)[C@H]2CCN3C2)cnn1C (stereo partly drawn) [Example 531]

Tryp AVG EC1.5 (μM) [3]: A (A (EC1.5<1 μM))
Compound: N#Cc1cncc(-c2ccc3c(n2)N(C(=O)Nc2ccccn2)[C@H]2CCCN3C2)c1 [Example 557]

Tryp AVG EC1.5 (μM) [3]: A (A (EC1.5<1 μM))
Compound: O=C(Nc1cnccn1)N1c2nc(-c3ccnc(N4CC[C@H](F)C4)c3)ccc2N2CC[C@H]1C2 [Example 436]

Tryp AVG EC1.5 (μM) [1]: A (A (EC1.5<1 μM))
Compound: CCC(=O)N1CCC(c2cccc(NC(=O)N3c4nc(-c5cccc(C(F)(F)F)c5)ccc4N4CC[C@H]3C4)c2)C1 (stereo partly drawn) [Example 636]

Tryp AVG EC1.5 (μM) [3]: A (A (EC1.5<1 μM))
Compound: CC(C)(C)OC(=O)N1CCc2cc(NC(=O)N3c4nc(-c5cccc(C(F)(F)F)c5)ccc4N4CC[C@H]3C4)ccc2C1 [Example 611]

Tryp AVG EC1.5 (μM) [2]: B (B (EC1.5 1-25 μM))
Emax [5]: > 150%
Compound: O=C(Nc1cnccn1)N1c2nc(-c3cc(C(F)(F)F)cc(C(F)(F)F)c3)ccc2N2CC[C@H]1C2 [Example 363]

TRP Activity (EC1.5) (Trp peptide assay): A (A (EC1.5<1 μM))
Emax [4]: > 150%
Compound: CC(C)n1cc(-c2ccc3c(n2)N(C(=O)Nc2cnccn2)[C@H]2CCN3C2)cn1 [(9S)-5-[1-(propan-2-yl)-1H-pyrazol-4-yl]-N-(pyrazin-2-yl)-1,6,8-triazatricyclo[7.2.1.0 {2,7}]dodeca-2,4,6-triene-8-carboxamide]

TRP Activity (EC1.5) (Trp peptide assay): A (A (EC1.5<1 μM))
Emax [4]: > 150%
Compound: COc1cncc(NC(=O)N2c3nc(-c4ccnc(C)c4)ccc3N3CCC[C@H]2C3)n1 [(9S)-N-(6-methoxypyrazin-2-yl)-5-(2-methylpyridin-4-yl)-1,6,8-triazatricyclo[7.3.1.0 {2,7}]trideca-2(7),3,5-triene-8-carboxamide]

Tryp AVG EC1.5 (μM) [3]: A (A (EC1.5<1 μM))
Compound: O=C(Nc1cc(Br)cc(-c2cnco2)c1)N1c2nc(-c3cccc(C(F)(F)F)c3)ccc2N2CC[C@H]1C2 [Example 562]

Tryp AVG EC1.5 (μM) [3]: B (B (EC1.5 1-25 μM))
Compound: O=C(Nc1cnccn1)N1c2nc(-c3cccc(N4CCOCC4)c3)ccc2N2CCC[C@H]1C2 [Example 560]

TRP Activity (EC1.5) (Trp peptide assay): B (B (EC1.5 1-25 μM))
Emax [4]: > 150%
Compound: CC(CO)NC(=O)c1ccc2c(n1)N(C(=O)Nc1ccccn1)[C@H]1CCN2C1 (stereo partly drawn) [(9S)-5-N-(1-hydroxypropan-2-yl)-8-N-(pyridin-2-yl)-1,6,8-triazatricyclo[7.2.1.0^{2,7}]dodeca-2(7),3,5-triene-5,8-dicarboxamide]

TRP Activity (EC1.5) (Trp peptide assay): A (A (EC1.5<1 μM))
TRP MAX RESP (percent maximum fold activation) (Trp peptide assay, maximum activity relative to control (100%)): A (A (Fold activation ≧150%))
Compound: O=C(Nc1ccccn1)N1c2nc(N3CCC[C@H](C(F)(F)F)C3)ccc2N2CCC[C@H]1C2 [drawing 1118, (9S)-N-(pyridin-2-yl)-5-[(3S)-3-(trifluoromethyl)piperidin-1-yl]-1,6,8-triazatricyclo[7.3.1.0 {2,7}]trideca-2(7),3,5-triene-8-carboxamide]

Tryp AVG EC1.5 (μM) [1]: A (A (EC1.5<1 μM))
Compound: O=C(Nc1cccc(-c2cnco2)c1)N1c2nc(-c3cncc(C(F)(F)F)c3)ccc2N2C[C@@H](O)[C@H]1C2 [Example 709]

Tryp AVG EC1.5 (μM) [3]: A (A (EC1.5<1 μM))
Compound: O=C(Nc1cccnc1)N1c2nc(-c3cncc(Cl)c3)ccc2N2CC[C@H]1C2 [Example 526]

Tryp AVG EC1.5 (μM) [3]: A (A (EC1.5<1 μM))
Compound: O=C(Nc1cc(-c2cnco2)ccn1)N1c2nc(-c3cccc(C(F)(F)F)c3)ccc2N2CCC1CC2 [Example 595]

TRP Activity (EC1.5) (Trp peptide assay): B (B (EC1.5 1-25 μM))
Emax [4]: > 150%
Compound: C[C@H]1CN(c2ccc3c(n2)N(C(=O)Nc2cnccn2)[C@H]2CCN3C2)C[C@H](C)O1 [(9S)-5-[(2S,6S)-2,6-dimethylmorpholin-4-yl]-N-(pyrazin-2-yl)-1,6,8-triazatricyclo[7.2.1.0^{2,7}]dodeca-2(7),3,5-triene-8-carboxamide]

Tryp AVG EC1.5 (μM) [3]: B (B (EC1.5 1-25 μM))
Compound: Cc1nn(C)cc1-c1ccc2c(n1)N(C(=O)Nc1cccnc1)[C@H]1CCN2C1 [Example 488]
